How the values were obtained:
TC-PTP = biological target: T1, TC-PTP (Homo sapiens, UniProt P17706); assay: PTP selectivity pNPP assay, TC-PTP; type: biochemical, mammalian
T1 sequence (P17706 1-415): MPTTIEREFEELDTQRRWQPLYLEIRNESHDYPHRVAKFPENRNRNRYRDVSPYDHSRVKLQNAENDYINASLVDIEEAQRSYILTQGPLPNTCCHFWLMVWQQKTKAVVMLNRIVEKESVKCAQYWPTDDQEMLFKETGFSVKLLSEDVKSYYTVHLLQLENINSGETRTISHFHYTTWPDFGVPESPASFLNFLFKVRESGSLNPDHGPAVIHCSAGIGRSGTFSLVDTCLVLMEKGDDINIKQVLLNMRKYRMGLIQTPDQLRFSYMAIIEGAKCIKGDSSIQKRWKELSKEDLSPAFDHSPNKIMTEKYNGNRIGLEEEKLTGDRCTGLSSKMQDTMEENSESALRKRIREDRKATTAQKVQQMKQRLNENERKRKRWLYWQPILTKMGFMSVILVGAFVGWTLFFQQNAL

mPTPB = biological target: T2, mPTPB (Mycobacterium tuberculosis, UniProt I6WXK4); type: biochemical
T2 sequence (I6WXK4 1-276): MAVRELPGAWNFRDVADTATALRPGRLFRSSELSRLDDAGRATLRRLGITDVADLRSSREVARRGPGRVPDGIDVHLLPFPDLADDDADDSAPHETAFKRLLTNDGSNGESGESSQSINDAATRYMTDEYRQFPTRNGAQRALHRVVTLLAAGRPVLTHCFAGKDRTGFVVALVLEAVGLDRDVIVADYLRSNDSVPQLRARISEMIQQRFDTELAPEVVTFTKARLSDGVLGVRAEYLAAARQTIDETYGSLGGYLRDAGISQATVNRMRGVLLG

O=C(O)c1cc2c(C#Cc3ccc(F)cc3F)c(-c3ccccc3)oc2cc1O [Compound 4e, 3-((2,4-difluorophenyl)ethynyl)-6-hydroxy-2-phenylbenzofuran-5-carboxylic acid]
IC50 (TC-PTP): 9 ± 0.5 µM

O=C(O)c1cc2c(C#Cc3cc(F)cc(F)c3)c(-c3ccccc3)oc2cc1O [Compound 4f, 3-((3,5-difluorophenyl)ethynyl)-6-hydroxy-2-phenylbenzofuran-5-carboxylic acid]
decrease in IC50 for mPTPB compared to 4b (mPTPB): 3.3 fold

O=C(O)c1cc2c(C#Cc3cccc(C(F)(F)F)c3)c(-c3ccccc3)oc2cc1O [Compound 4g, 6-hydroxy-2-phenyl-3-((3-(trifluoromethyl)phenyl)ethynyl)benzofuran-5-carboxylic acid]
mode of mPTPB inhibition (mPTPB): reversible and noncompetitive
